Patent US11178873B2, “Cyclic N-carboxamide compounds useful as herbicides” (FMC CORPORATION, priority 2015, dated 2021)

Tests used:
Assay type in all cases: in vivo
corn (Zea mays) [1] = experiment: Test A preemergence, corn; conditions: 0 to 100 scale, 0 no effect, 100 complete control
Source text: (§1) Seeds of plant species selected from barnyardgrass (Echinochloa crus-galli), crabgrass, large (large crabgrass, Digitaria sanguinalis), kochia (Kochia scoparia), ragweed (common ragweed, Ambrosia elatior), morningglory (Ipomoea spp.), velvetleaf (Abutilon theophrasti), ryegrass, Italian (Italian ryegrass, Lolium multiflorum), foxtail, giant (giant foxtail, Setaria faberii), wheat (Triticum aestivum), corn (Zea mays), and pigweed (Amaranthus retroflexus), were planted into a blend of loam soil and sand and treated preemergence with a directed soil spray using test chemicals formulated in a non-phytotoxic solvent mixture which included a surfactant. At the same time, plants selected from these crop and weed species and also blackgrass (Alopecurus myosuroides), and galium (catchweed bedstraw, Galium aparine), were planted in pots containing the same blend of loam soil and sand and treated with postemergence applications of test chemicals formulated in the same manner. Plants ranged in height from 2 to 10 cm and were in the one- to two-leaf stage for the postemergence treatment. Treated plants and untreated controls were maintained in a greenhouse for approximately 10 d, after which time all treated plants were compared to untreated controls and visually evaluated for injury. Plant response ratings, summarized in Table A, are based on a 0 to 100 scale where 0 is no effect and 100 is complete control. A dash (-) response means no test result.

[2] = system: wheat (Triticum aestivum); experiment: Test A postemergence, wheat; conditions: 0 to 100 scale, 0 no effect, 100 complete control
Method in brief: (§2)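 Compounds are applied in a non-phytotoxic solvent with surfactant, either preemergence as a directed soil spray or postemergence at the one- to two-leaf stage. Plants grow in loam–sand soil in a greenhouse, and injury is scored visually against untreated controls after about 10 d (0–100 scale).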

[3] = system: pigweed (Amaranthus retroflexus); experiment: Test A preemergence, pigweed; conditions: 0 to 100 scale, 0 no effect, 100 complete control
Method in brief: as §2

[4] = system: sedge, umbrella (small-flower umbrella sedge, Cyperus difformis); experiment: Test B flooded paddy test, sedge, umbrella; conditions: Flood, 250 g ai/ha; scale 0 to 100 (0 no effect, 100 complete control); 13 to 15 d
Method in brief: (§3)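 Plants at the 2-leaf stage were flooded to 3 cm above soil, and test compounds were applied directly into the paddy water, which was held at that depth throughout. After 13 to 15 d in a greenhouse, injury was rated visually against untreated controls on a 0–100 scale (0 no effect, 100 complete control).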

[5] = system: crabgrass, large (large crabgrass, Digitaria sanguinalis); experiment: Test A postemergence, crabgrass, large; conditions: 0 to 100 scale, 0 no effect, 100 complete control
Source text: as §1

[6] = system: crabgrass, large (large crabgrass, Digitaria sanguinalis); experiment: Test A preemergence, crabgrass, large; conditions: 0 to 100 scale, 0 no effect, 100 complete control
Source text: as §1

rice (Oryza sativa) = experiment: Test B flooded paddy test, rice; conditions: Flood, 250 g ai/ha; scale 0 to 100 (0 no effect, 100 complete control); 13 to 15 d
Method in brief: as §3

[7] = system: pigweed (Amaranthus retroflexus); experiment: Test A postemergence, pigweed; conditions: 0 to 100 scale, 0 no effect, 100 complete control
Method in brief: as §2

[8] = system: barnyardgrass (Echinochloa crus-galli); experiment: Test A preemergence, barnyardgrass; conditions: 0 to 100 scale, 0 no effect, 100 complete control
Method in brief: as §2

[9] = system: morningglory (Ipomoea spp.); experiment: Test A preemergence, morningglory; conditions: 0 to 100 scale, 0 no effect, 100 complete control
Source text: as §1

[10] = system: velvetleaf (Abutilon theophrasti); experiment: Test A postemergence, velvetleaf; conditions: 0 to 100 scale, 0 no effect, 100 complete control
Source text: as §1

corn (Zea mays) [11] = experiment: Test A postemergence, corn; conditions: 0 to 100 scale, 0 no effect, 100 complete control
Method in brief: as §2

[12] = system: ducksalad (Heteranthera limosa); experiment: Test B flooded paddy test, ducksalad; conditions: Flood, 250 g ai/ha; scale 0 to 100 (0 no effect, 100 complete control); 13 to 15 d
Method in brief: as §3

[13] = system: wheat (Triticum aestivum); experiment: Test A preemergence, wheat; conditions: 0 to 100 scale, 0 no effect, 100 complete control
Source text: as §1

[14] = system: foxtail, giant (giant foxtail, Setaria faberii); experiment: Test A postemergence, foxtail, giant; conditions: 0 to 100 scale, 0 no effect, 100 complete control
Method in brief: as §2

[15] = system: morningglory (Ipomoea spp.); experiment: Test A postemergence, morningglory; conditions: 0 to 100 scale, 0 no effect, 100 complete control
Source text: as §1

[16] = system: barnyardgrass (Echinochloa crus-galli); experiment: Test B flooded paddy test, barnyardgrass; conditions: Flood, 250 g ai/ha; scale 0 to 100 (0 no effect, 100 complete control); 13 to 15 d
Method in brief: as §3

[17] = system: barnyardgrass (Echinochloa crus-galli); experiment: Test A postemergence, barnyardgrass; conditions: 0 to 100 scale, 0 no effect, 100 complete control
Method in brief: as §2

[18] = system: velvetleaf (Abutilon theophrasti); experiment: Test A preemergence, velvetleaf; conditions: 0 to 100 scale, 0 no effect, 100 complete control
Source text: as §1

[19] = system: foxtail, giant (giant foxtail, Setaria faberii); experiment: Test A preemergence, foxtail, giant; conditions: 0 to 100 scale, 0 no effect, 100 complete control
Method in brief: as §2

Structure (SMILES)	Plant response rating, Corn (corn (Zea mays) [1]; 125 g ai/ha)	Plant response rating, Corn (corn (Zea mays) [1]; 500 g ai/ha)	Plant response rating, Wheat ([2]; 125 g ai/ha)	Plant response rating, Wheat ([2]; 500 g ai/ha)	Plant response rating, Pigweed ([3]; 125 g ai/ha)	Plant response rating, Pigweed ([3]; 500 g ai/ha)	Plant response rating, Sedge, Umbrella [4]	Plant response rating, Crabgrass, Large ([5]; 125 g ai/ha)	Plant response rating, Crabgrass, Large ([5]; 500 g ai/ha)	Plant response rating, Crabgrass, Large ([6]; 125 g ai/ha)	Plant response rating, Crabgrass, Large ([6]; 500 g ai/ha)	Plant response rating, Rice (rice (Oryza sativa))	Plant response rating, Pigweed ([7]; 125 g ai/ha)	Plant response rating, Pigweed ([7]; 500 g ai/ha)	Plant response rating, Barnyardgrass ([8]; 125 g ai/ha)	Plant response rating, Barnyardgrass ([8]; 500 g ai/ha)	Plant response rating, Morningglory ([9]; 125 g ai/ha)	Plant response rating, Morningglory ([9]; 500 g ai/ha)	Plant response rating, Velvetleaf ([10]; 125 g ai/ha)	Plant response rating, Velvetleaf ([10]; 500 g ai/ha)	further results
O=C(Nc1ccccc1C(F)(F)F)N1C(=O)OCC1c1ccc(F)c(F)c1 (stereo not drawn) [Compound 1]	0	0	0	0	0	0	0	0	20	30	70	0	0	0	0	0	0	0	0	0	Plant response rating, Corn (corn (Zea mays) [11]; 125 g ai/ha): 0; Plant response rating, Corn (corn (Zea mays) [11]; 500 g ai/ha): 0; Plant response rating, Ducksalad [12]: 0; Plant response rating, Wheat ([13]; 125 g ai/ha): 0; Plant response rating, Wheat ([13]; 500 g ai/ha): 0; Plant response rating, Foxtail, Giant ([14]; 125 g ai/ha): 0; Plant response rating, Foxtail, Giant ([14]; 500 g ai/ha): 0; Plant response rating, Morningglory ([15]; 125 g ai/ha): 0; Plant response rating, Morningglory ([15]; 500 g ai/ha): 0; Plant response rating, Barnyardgrass [16]: 0; Plant response rating, Barnyardgrass ([17]; 125 g ai/ha): 0; Plant response rating, Barnyardgrass ([17]; 500 g ai/ha): 0; Plant response rating, Velvetleaf ([18]; 125 g ai/ha): 0; Plant response rating, Velvetleaf ([18]; 500 g ai/ha): 0; Plant response rating, Foxtail, Giant ([19]; 125 g ai/ha): 0; Plant response rating, Foxtail, Giant ([19]; 500 g ai/ha): 0
O=C(Nc1ccccc1Cl)N1C(=O)OCC1c1ccc(F)c(F)c1 (stereo not drawn) [Compound 2]	0	0	0	0	0	0	0	0	0	40	80	0	0	0	0	0	0	0	0	0	Plant response rating, Corn (corn (Zea mays) [11]; 125 g ai/ha): 0; Plant response rating, Corn (corn (Zea mays) [11]; 500 g ai/ha): 0; Plant response rating, Ducksalad [12]: 0; Plant response rating, Wheat ([13]; 125 g ai/ha): 0; Plant response rating, Wheat ([13]; 500 g ai/ha): 0; Plant response rating, Foxtail, Giant ([14]; 125 g ai/ha): 0; Plant response rating, Foxtail, Giant ([14]; 500 g ai/ha): 0; Plant response rating, Morningglory ([15]; 125 g ai/ha): 0; Plant response rating, Morningglory ([15]; 500 g ai/ha): 0; Plant response rating, Barnyardgrass [16]: 0; Plant response rating, Barnyardgrass ([17]; 125 g ai/ha): 0; Plant response rating, Barnyardgrass ([17]; 500 g ai/ha): 0; Plant response rating, Velvetleaf ([18]; 125 g ai/ha): 0; Plant response rating, Velvetleaf ([18]; 500 g ai/ha): 0; Plant response rating, Foxtail, Giant ([19]; 125 g ai/ha): 0; Plant response rating, Foxtail, Giant ([19]; 500 g ai/ha): 30
